Laboratory results as given in the NIST ThermoML archive (doi:10.1016/j.jct.2006.02.001).
Numbers after ± are expanded uncertainties.

Legend:
[1] = xn = mol fraction of the nth substance listed; details: 101 kPa, Liquid
[2] = refractive index (Na D-line) (dimensionless); xn = mol fraction of the nth substance listed; details: 101 kPa, Liquid

COc1ccccc1 [anisole] + Cc1cc(C)cc(C)c1
x1 = 1
Details | mass density, 288.15 K [kg/m3] | mass density, 293.15 K [kg/m3] | mass density, 298.15 K [kg/m3] | mass density, 303.15 K [kg/m3] | refractive index, 288.15 K | refractive index, 293.15 K | refractive index, 298.15 K | refractive index, 303.15 K
[1] | 998.44 ± 0.45 | 993.65 ± 0.46 | 989.15 ± 0.48 | 984.37 ± 0.5 | – | – | – | –
[2] | – | – | – | – | 1.5256 ± 0.0098 | 1.5169 ± 0.0097 | 1.5141 ± 0.0096 | 1.5117 ± 0.0096

COc1ccccc1 [anisole] + c1ccccc1
Details | mass density, 288.15 K [kg/m3] | mass density, 293.15 K [kg/m3] | mass density, 298.15 K [kg/m3] | mass density, 303.15 K [kg/m3] | refractive index, 288.15 K | refractive index, 293.15 K | refractive index, 298.15 K | refractive index, 303.15 K
[1], x1 = 0.105 | 898.53 ± 3 | 891.31 ± 3.1 | 888.2 ± 3.1 | 882.91 ± 3.2 | – | – | – | –
[1], x1 = 0.201 | 911.14 ± 2.8 | 904.23 ± 2.9 | 900.97 ± 2.9 | 895.75 ± 3 | – | – | – | –
[1], x1 = 0.3173 | 925.73 ± 2.5 | 919.17 ± 2.6 | 915.76 ± 2.7 | 910.6 ± 2.8 | – | – | – | –
[1], x1 = 0.4192 | 937.94 ± 2.4 | 931.66 ± 2.5 | 928.1 ± 2.5 | 923 ± 2.6 | – | – | – | –
[1], x1 = 0.5126 | 948.66 ± 2.2 | 942.64 ± 2.3 | 938.93 ± 2.3 | 933.89 ± 2.4 | – | – | – | –
[1], x1 = 0.6139 | 959.83 ± 2 | 954.08 ± 2.1 | 950.21 ± 2.2 | 945.24 ± 2.2 | – | – | – | –
[1], x1 = 0.7067 | 969.67 ± 1.9 | 964.17 ± 1.9 | 960.12 ± 2 | 955.22 ± 2.1 | – | – | – | –
[1], x1 = 0.797 | 978.88 ± 1.7 | 973.61 ± 1.8 | 969.41 ± 1.9 | 964.57 ± 1.9 | – | – | – | –
[1], x1 = 0.9002 | 989.01 ± 1.6 | 983.99 ± 1.6 | 979.62 ± 1.7 | 974.85 ± 1.8 | – | – | – | –
[1], x1 = 1 | 998.44 ± 1.4 | 993.65 ± 1.5 | 989.15 ± 1.6 | 984.37 ± 1.6 | – | – | – | –
[2], x1 = 0.105 | – | – | – | – | 1.5076 ± 0.0096 | 1.5032 ± 0.0096 | 1.5001 ± 0.0097 | 1.4884 ± 0.0099
[2], x1 = 0.201 | – | – | – | – | 1.51 ± 0.0096 | 1.5051 ± 0.0096 | 1.5019 ± 0.0097 | 1.4914 ± 0.0098
[2], x1 = 0.3173 | – | – | – | – | 1.5127 ± 0.0097 | 1.5072 ± 0.0096 | 1.5041 ± 0.0097 | 1.4949 ± 0.0098
[2], x1 = 0.4192 | – | – | – | – | 1.5149 ± 0.0097 | 1.509 ± 0.0096 | 1.5058 ± 0.0097 | 1.4978 ± 0.0097
[2], x1 = 0.5126 | – | – | – | – | 1.5168 ± 0.0097 | 1.5105 ± 0.0096 | 1.5074 ± 0.0097 | 1.5003 ± 0.0097
[2], x1 = 0.6139 | – | – | – | – | 1.5188 ± 0.0097 | 1.5121 ± 0.0097 | 1.5089 ± 0.0096 | 1.5029 ± 0.0097
[2], x1 = 0.7067 | – | – | – | – | 1.5206 ± 0.0097 | 1.5134 ± 0.0097 | 1.5103 ± 0.0096 | 1.5052 ± 0.0097
[2], x1 = 0.797 | – | – | – | – | 1.5222 ± 0.0097 | 1.5147 ± 0.0097 | 1.5115 ± 0.0096 | 1.5073 ± 0.0096
[2], x1 = 0.9002 | – | – | – | – | 1.524 ± 0.0097 | 1.516 ± 0.0097 | 1.5129 ± 0.0096 | 1.5096 ± 0.0096
[2], x1 = 1 | – | – | – | – | 1.5256 ± 0.0097 | 1.5172 ± 0.0097 | 1.5141 ± 0.0096 | 1.5117 ± 0.0096

c1ccccc1 [benzene] + COc1ccccc1
x2 = 0
Details | mass density, 288.15 K [kg/m3] | mass density, 293.15 K [kg/m3] | mass density, 298.15 K [kg/m3] | mass density, 303.15 K [kg/m3] | refractive index, 288.15 K | refractive index, 293.15 K | refractive index, 298.15 K | refractive index, 303.15 K
[1] | 884.11 ± 3.2 | 876.53 ± 3.3 | 873.6 ± 3.4 | 868.23 ± 3.5 | – | – | – | –
[2] | – | – | – | – | 1.505 ± 0.0096 | 1.5011 ± 0.0096 | 1.4979 ± 0.0097 | 1.4849 ± 0.0099

COc1ccccc1 [anisole] + Cc1ccc(C)cc1
Details | mass density, 288.15 K [kg/m3] | mass density, 293.15 K [kg/m3] | mass density, 298.15 K [kg/m3] | mass density, 303.15 K [kg/m3] | refractive index, 288.15 K | refractive index, 293.15 K | refractive index, 298.15 K | refractive index, 303.15 K
[1], x1 = 0.0994 | 877.53 ± 0.86 | 873.32 ± 0.88 | 869.02 ± 0.9 | 864.71 ± 0.91 | – | – | – | –
[1], x1 = 0.2471 | 896.11 ± 0.8 | 891.85 ± 0.81 | 887.55 ± 0.83 | 883.2 ± 0.85 | – | – | – | –
[1], x1 = 0.3745 | 912.51 ± 0.74 | 908.14 ± 0.76 | 903.84 ± 0.77 | 899.38 ± 0.79 | – | – | – | –
[1], x1 = 0.496 | 928.51 ± 0.69 | 924.05 ± 0.7 | 919.74 ± 0.72 | 915.2 ± 0.74 | – | – | – | –
[1], x1 = 0.6455 | 948.69 ± 0.62 | 944.15 ± 0.63 | 939.83 ± 0.65 | 935.26 ± 0.67 | – | – | – | –
[1], x1 = 0.7466 | 962.63 ± 0.57 | 958.06 ± 0.58 | 953.71 ± 0.6 | 949.14 ± 0.62 | – | – | – | –
[1], x1 = 0.8972 | 983.79 ± 0.49 | 979.14 ± 0.51 | 974.73 ± 0.53 | 970.18 ± 0.55 | – | – | – | –
[1], x1 = 0.949 | 991.13 ± 0.47 | 986.45 ± 0.49 | 981.99 ± 0.5 | 977.4 ± 0.52 | – | – | – | –
[1], x1 = 0.9772 | 995.17 ± 0.46 | 990.43 ± 0.47 | 985.95 ± 0.49 | 981.34 ± 0.51 | – | – | – | –
[1], x1 = 1 | 998.44 ± 0.45 | 993.65 ± 0.46 | 989.15 ± 0.48 | 984.37 ± 0.5 | – | – | – | –
[2], x1 = 0.0994 | – | – | – | – | 1.5007 ± 0.0096 | 1.4978 ± 0.0096 | 1.4949 ± 0.0096 | 1.4935 ± 0.0096
[2], x1 = 0.2471 | – | – | – | – | 1.5044 ± 0.0096 | 1.5006 ± 0.0096 | 1.4978 ± 0.0096 | 1.4963 ± 0.0096
[2], x1 = 0.3745 | – | – | – | – | 1.5077 ± 0.0096 | 1.5032 ± 0.0096 | 1.5004 ± 0.0096 | 1.4987 ± 0.0096
[2], x1 = 0.496 | – | – | – | – | 1.5109 ± 0.0097 | 1.5057 ± 0.0096 | 1.5029 ± 0.0096 | 1.5011 ± 0.0096
[2], x1 = 0.6455 | – | – | – | – | 1.5151 ± 0.0097 | 1.5089 ± 0.0096 | 1.5061 ± 0.0096 | 1.5042 ± 0.0096
[2], x1 = 0.7466 | – | – | – | – | 1.5179 ± 0.0097 | 1.5111 ± 0.0096 | 1.5084 ± 0.0096 | 1.5064 ± 0.0096
[2], x1 = 0.8972 | – | – | – | – | 1.5223 ± 0.0097 | 1.5145 ± 0.0097 | 1.5118 ± 0.0096 | 1.5097 ± 0.0096
[2], x1 = 0.949 | – | – | – | – | 1.5239 ± 0.0097 | 1.5157 ± 0.0097 | 1.5129 ± 0.0096 | 1.5107 ± 0.0096
[2], x1 = 0.9772 | – | – | – | – | 1.5248 ± 0.0097 | 1.5164 ± 0.0097 | 1.5136 ± 0.0096 | 1.5113 ± 0.0096
[2], x1 = 1 | – | – | – | – | 1.5256 ± 0.0098 | 1.5169 ± 0.0097 | 1.5141 ± 0.0096 | 1.5117 ± 0.0096
